Laboratory results published in ChEMBL document CHEMBL3727344, “2-fluoro-benzenesulfonamide compounds as RAF kinase modulators” (2014).
pIC50: −log10 of the molar value.

Key:
[1] = molecular target: T1, Serine/threonine-protein kinase A-Raf (Homo sapiens, UniProt P10398); assay: Inhibition of A-Raf (unknown origin)
T1 sequence (P10398 whole entry): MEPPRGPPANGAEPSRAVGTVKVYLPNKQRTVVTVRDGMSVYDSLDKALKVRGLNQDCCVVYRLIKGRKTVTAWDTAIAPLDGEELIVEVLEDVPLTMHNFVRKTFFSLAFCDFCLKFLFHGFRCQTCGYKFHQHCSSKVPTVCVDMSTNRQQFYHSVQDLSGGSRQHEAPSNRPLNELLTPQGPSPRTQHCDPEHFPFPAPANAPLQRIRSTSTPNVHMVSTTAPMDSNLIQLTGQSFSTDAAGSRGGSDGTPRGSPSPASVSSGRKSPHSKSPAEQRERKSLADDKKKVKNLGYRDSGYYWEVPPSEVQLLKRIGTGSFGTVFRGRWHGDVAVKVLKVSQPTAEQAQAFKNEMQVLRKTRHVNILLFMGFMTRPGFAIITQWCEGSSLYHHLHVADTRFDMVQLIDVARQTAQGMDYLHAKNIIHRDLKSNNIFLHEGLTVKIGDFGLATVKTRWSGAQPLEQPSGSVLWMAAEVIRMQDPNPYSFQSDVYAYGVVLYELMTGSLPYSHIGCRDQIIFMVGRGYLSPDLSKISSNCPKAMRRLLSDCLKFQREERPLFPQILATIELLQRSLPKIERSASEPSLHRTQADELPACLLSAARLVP

[2] = molecular target: Serine/threonine-protein kinase B-raf (Homo sapiens, UniProt P15056, V600E); assay: Inhibition of B-Raf V600E mutant (unknown origin)
Serine/threonine-protein kinase B-raf (Homo sapiens, UniProt P15056, V600E), sequence (P15056 2-766 V600E limits assumed): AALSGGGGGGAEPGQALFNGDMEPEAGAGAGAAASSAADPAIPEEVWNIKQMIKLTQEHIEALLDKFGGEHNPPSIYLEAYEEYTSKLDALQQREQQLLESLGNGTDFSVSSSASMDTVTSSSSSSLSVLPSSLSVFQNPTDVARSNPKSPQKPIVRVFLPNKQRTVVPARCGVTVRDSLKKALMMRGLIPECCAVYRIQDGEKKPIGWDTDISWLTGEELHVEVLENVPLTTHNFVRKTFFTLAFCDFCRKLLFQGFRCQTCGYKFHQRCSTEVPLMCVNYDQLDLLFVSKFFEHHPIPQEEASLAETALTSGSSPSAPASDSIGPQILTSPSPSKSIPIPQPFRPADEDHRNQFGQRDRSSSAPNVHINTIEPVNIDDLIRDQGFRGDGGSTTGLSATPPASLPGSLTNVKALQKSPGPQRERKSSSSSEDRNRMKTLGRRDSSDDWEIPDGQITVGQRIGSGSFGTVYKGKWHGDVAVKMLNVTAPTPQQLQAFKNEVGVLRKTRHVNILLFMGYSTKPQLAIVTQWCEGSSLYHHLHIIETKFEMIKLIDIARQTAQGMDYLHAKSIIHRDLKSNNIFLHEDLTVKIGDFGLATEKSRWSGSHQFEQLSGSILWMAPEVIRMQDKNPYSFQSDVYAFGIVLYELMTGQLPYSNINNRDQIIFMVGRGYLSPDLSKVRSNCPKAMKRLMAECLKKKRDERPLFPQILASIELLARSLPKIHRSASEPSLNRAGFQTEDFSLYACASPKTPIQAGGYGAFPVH

[3] = molecular target: Serine/threonine-protein kinase B-raf (Homo sapiens, UniProt P15056); assay: Inhibition of B-Raf (unknown origin)
Serine/threonine-protein kinase B-raf (Homo sapiens, UniProt P15056), sequence (P15056 whole entry): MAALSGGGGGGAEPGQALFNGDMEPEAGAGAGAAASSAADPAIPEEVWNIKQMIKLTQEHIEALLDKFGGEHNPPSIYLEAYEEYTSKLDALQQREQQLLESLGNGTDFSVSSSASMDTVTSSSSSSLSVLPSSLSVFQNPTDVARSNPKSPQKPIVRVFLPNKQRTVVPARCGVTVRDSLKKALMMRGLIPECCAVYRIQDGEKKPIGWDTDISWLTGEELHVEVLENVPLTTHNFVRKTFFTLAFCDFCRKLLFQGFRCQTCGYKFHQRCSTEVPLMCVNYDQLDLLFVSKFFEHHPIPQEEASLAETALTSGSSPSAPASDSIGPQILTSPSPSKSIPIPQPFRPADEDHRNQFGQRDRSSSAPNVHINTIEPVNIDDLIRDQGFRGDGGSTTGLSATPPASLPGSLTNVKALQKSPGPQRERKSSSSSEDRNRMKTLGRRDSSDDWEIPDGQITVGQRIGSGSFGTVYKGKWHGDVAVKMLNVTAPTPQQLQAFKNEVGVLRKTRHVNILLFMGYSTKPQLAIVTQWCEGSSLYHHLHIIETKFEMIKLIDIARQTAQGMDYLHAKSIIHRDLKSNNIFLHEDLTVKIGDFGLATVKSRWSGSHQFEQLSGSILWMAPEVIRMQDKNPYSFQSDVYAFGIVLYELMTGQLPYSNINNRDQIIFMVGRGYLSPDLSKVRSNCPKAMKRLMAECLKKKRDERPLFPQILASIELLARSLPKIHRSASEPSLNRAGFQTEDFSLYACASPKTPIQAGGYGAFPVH

[4] = molecular target: RAF proto-oncogene serine/threonine-protein kinase (Homo sapiens, UniProt P04049); assay: Inhibition of c-Raf 1 (unknown origin)
RAF proto-oncogene serine/threonine-protein kinase, sequence (P04049 whole entry): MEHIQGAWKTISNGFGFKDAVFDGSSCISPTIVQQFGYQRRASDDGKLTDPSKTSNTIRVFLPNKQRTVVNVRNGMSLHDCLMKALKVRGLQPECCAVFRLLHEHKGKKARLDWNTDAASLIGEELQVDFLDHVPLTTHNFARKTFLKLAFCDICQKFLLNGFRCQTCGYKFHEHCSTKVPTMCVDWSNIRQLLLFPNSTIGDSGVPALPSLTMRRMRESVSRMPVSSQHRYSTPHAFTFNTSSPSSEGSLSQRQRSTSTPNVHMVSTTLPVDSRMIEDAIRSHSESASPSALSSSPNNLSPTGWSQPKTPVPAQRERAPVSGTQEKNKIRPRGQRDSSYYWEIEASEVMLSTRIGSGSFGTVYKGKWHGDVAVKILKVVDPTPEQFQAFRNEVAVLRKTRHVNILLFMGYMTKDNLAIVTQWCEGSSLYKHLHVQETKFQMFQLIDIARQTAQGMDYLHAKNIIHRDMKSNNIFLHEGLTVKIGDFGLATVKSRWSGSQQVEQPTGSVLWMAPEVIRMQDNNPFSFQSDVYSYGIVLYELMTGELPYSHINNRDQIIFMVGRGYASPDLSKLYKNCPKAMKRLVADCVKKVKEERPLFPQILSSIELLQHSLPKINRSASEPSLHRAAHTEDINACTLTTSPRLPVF

[5] = molecular target: Protein-tyrosine kinase 6 (Homo sapiens, UniProt Q13882); assay: Inhibition of Brk (unknown origin)
Protein-tyrosine kinase 6, sequence (Q13882 whole entry): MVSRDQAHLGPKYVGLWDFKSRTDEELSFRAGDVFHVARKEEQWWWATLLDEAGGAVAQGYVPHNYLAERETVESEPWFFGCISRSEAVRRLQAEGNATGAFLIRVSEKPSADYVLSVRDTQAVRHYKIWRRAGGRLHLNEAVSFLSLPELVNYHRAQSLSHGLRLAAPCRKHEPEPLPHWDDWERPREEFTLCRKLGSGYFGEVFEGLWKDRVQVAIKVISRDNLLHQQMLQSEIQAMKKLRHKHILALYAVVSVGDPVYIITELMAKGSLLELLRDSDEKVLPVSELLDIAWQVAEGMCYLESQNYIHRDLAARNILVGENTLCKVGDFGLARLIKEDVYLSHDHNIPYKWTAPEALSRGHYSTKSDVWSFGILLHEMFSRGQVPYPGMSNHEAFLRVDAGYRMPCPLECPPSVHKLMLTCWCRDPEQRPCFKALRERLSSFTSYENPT

[6] = molecular target: Tyrosine-protein kinase CSK (Homo sapiens, UniProt P41240); assay: Inhibition of Csk (unknown origin)
Focal adhesion kinase 1 = Focal adhesion kinase 1 (Homo sapiens, UniProt Q05397); assay: Inhibition of Fak (unknown origin)
[7] = molecular target: Tyrosine-protein kinase Lck (Homo sapiens, UniProt P06239); assay: Inhibition of Lck (unknown origin)
[8] = molecular target: Tyrosine-protein kinase Lyn (Homo sapiens, UniProt P07948); assay: Inhibition of Lyn (unknown origin)
[9] = molecular target: Proto-oncogene tyrosine-protein kinase Src (Homo sapiens, UniProt P12931); assay: Inhibition of Src (unknown origin)
Proto-oncogene tyrosine-protein kinase Src, sequence (P12931 2-536 limits assumed): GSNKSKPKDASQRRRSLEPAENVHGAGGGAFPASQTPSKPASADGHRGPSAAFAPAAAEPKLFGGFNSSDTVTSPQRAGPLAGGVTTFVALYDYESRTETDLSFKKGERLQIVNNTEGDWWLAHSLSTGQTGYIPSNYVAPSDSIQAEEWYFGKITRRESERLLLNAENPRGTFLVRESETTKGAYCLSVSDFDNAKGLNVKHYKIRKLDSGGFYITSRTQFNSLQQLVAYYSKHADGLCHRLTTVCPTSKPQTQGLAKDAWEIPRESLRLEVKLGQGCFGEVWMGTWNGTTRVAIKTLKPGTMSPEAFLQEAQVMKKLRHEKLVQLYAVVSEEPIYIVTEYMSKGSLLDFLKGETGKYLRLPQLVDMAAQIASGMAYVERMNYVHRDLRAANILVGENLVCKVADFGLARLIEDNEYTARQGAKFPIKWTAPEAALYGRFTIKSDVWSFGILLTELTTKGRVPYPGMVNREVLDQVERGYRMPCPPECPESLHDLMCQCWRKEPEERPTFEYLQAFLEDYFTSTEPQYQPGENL

[10] = molecular target: High affinity nerve growth factor receptor (Homo sapiens, UniProt P04629); assay: Inhibition of TrkA (unknown origin)
High affinity nerve growth factor receptor, sequence (P04629 whole entry): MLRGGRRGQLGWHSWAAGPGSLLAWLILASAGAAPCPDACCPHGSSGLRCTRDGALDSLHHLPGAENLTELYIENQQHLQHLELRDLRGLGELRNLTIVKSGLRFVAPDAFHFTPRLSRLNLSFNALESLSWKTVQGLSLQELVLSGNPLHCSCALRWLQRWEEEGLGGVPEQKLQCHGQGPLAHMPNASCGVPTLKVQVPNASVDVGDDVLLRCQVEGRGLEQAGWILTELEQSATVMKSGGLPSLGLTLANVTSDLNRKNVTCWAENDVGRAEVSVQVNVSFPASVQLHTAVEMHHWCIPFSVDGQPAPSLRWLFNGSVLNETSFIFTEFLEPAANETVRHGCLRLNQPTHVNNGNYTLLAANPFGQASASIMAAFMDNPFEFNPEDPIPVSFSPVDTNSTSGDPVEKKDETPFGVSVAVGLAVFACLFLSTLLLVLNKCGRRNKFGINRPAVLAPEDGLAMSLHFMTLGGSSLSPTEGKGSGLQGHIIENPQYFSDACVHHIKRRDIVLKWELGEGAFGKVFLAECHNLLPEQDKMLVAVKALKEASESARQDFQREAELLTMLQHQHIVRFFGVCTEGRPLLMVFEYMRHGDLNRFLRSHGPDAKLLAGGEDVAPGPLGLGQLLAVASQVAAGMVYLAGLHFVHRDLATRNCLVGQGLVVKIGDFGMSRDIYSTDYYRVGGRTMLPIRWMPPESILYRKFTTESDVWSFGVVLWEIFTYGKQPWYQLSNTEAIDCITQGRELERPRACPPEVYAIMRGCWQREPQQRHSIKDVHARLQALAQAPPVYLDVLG

[11] = molecular target: Tyrosine-protein kinase Yes (Homo sapiens, UniProt P07947); assay: Inhibition of Yes (unknown origin)
[12] = molecular target: Macrophage colony-stimulating factor 1 receptor (Homo sapiens, UniProt P07333); assay: Inhibition of Fms (unknown origin)
Macrophage colony-stimulating factor 1 receptor, sequence (P07333 whole entry): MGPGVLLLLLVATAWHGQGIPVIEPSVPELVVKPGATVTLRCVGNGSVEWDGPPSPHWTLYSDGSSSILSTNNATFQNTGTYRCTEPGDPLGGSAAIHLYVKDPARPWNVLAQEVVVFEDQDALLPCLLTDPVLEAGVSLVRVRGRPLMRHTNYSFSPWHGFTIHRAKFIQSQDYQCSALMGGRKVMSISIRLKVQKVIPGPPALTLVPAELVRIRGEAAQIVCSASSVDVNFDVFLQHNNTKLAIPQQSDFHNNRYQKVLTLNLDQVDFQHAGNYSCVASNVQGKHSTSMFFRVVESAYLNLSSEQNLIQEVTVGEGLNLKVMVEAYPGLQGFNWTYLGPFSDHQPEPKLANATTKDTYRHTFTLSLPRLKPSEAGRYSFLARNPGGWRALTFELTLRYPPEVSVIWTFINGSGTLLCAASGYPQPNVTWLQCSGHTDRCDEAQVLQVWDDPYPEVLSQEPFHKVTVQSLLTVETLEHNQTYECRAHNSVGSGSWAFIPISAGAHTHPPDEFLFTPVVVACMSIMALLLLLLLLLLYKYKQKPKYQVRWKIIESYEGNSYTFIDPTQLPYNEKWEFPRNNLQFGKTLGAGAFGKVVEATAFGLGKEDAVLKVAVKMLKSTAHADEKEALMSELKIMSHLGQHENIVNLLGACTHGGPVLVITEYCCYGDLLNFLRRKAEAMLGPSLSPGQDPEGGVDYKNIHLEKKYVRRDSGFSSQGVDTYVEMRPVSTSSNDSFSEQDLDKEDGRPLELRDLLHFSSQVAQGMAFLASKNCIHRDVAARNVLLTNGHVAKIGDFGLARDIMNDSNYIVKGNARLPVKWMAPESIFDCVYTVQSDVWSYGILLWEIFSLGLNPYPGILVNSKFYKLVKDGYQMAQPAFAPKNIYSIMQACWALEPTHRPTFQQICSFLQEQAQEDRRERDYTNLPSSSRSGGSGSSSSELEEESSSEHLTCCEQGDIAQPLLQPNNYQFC

[13] = molecular target: Tyrosine-protein kinase BTK (Homo sapiens, UniProt Q06187); assay: Inhibition of Btk (unknown origin)
[14] = molecular target: Vascular endothelial growth factor receptor 2 (Homo sapiens, UniProt P35968); assay: Inhibition of Kdr (unknown origin)
[15] = molecular target: Mast/stem cell growth factor receptor Kit (Homo sapiens, UniProt P10721); assay: Inhibition of Kit (unknown origin)

Measured: pIC50

CCCS(=O)(=O)Nc1ccc(F)c(NCc2cnc3ccccc3c2)c1F
≥ 5.00: [1] | [2]

CCCS(=O)(=O)Nc1ccc(Cl)c(C(=O)Nc2nnc(Cc3ccc(Cl)cc3)s2)c1F
≥ 5.00: [1]

CCCS(=O)(=O)Nc1ccc(Cl)c(C(=O)Nc2ccc(NC(=O)N3CCCC3)nc2)c1F
≥ 5.00: [1]

CCCS(=O)(=O)Nc1ccc(Cl)c(C(=O)Nc2ccc(NC(C)=O)nc2)c1F
≥ 5.00: [1] | [3] | [2] | [4] | [5] | [6] | Focal adhesion kinase 1 | [7] | [8] | [9] | [10] | [11]

CCCS(=O)(=O)Nc1ccc(F)c(CNc2cnc3ccccc3c2)c1F
≥ 5.00: [1] | [2] | [4]

CCCS(=O)(=O)Nc1ccc(Cl)c(C(=O)Nc2cnc3ccccc3c2)c1F
≥ 5.00: [1] | [3] | [2] | [4]

CCCS(=O)(=O)Nc1ccc(F)c(C(=O)Nc2ccc(NC(C)=O)nc2)c1F
≥ 5.00: [1] | [3] | [2] | [4]

CCCS(=O)(=O)Nc1ccc(Cl)c(C(=O)Nc2ccc(NC3CC3)nc2)c1F
≥ 5.00: [1] | [3] | [2] | [4]

CCCS(=O)(=O)Nc1ccc(Cl)c(C(=O)Nc2ccc(NCc3cccs3)nc2)c1F
≥ 5.00: [1] | [3] | [2] | [4]

CCCS(=O)(=O)Nc1ccc(Cl)c(C(=O)Nc2cnc3ccccn23)c1F
≥ 5.00: [3] | [2]

CCCS(=O)(=O)Nc1ccc(Cl)c(C(=O)Nc2ccc(NC3CCCC3)nc2)c1F
≥ 5.00: [1] | [4]

CCCS(=O)(=O)Nc1ccc(Cl)c(C(=O)Nc2ccc(NC(C)C)nc2)c1F
≥ 5.00: [1] | [2]

CCCS(=O)(=O)Nc1ccc(F)c(COc2cnc3ccccc3c2)c1F
≥ 5.00: [12] | [1] | [2]

CCCS(=O)(=O)Nc1ccc(Cl)c(C(=O)Nc2ccc(NCc3ccccc3)nc2)c1F
≥ 5.00: [1] | [3] | [2] | [4]

CCCS(=O)(=O)Nc1ccc(Cl)c(C(=O)Nc2ccc(Nc3ncc(C)s3)nc2)c1F
≥ 5.00: [1] | [3] | [2] | [4] | [13] | [14] | [15] | [9] | [10]

CCCS(=O)(=O)Nc1ccc(Cl)c(C(=O)Nc2cccnc2)c1F
≥ 5.00: [1] | [2] | [4]

CCCS(=O)(=O)Nc1ccc(Cl)c(C(=O)Nc2cc(-c3ccc(Cl)cc3)n[nH]2)c1F
≥ 5.00: [12] | [1]

CCCS(=O)(=O)Nc1ccc(F)c(CNc2ccc(NC(C)=O)nc2)c1F
≥ 5.00: [1] | [2] | [4]

CCCS(=O)(=O)Nc1ccc(F)c(C(=O)Nc2cnc3ccccc3c2)c1F
≥ 5.00: [1] | [3] | [2] | [4]

CCCS(=O)(=O)Nc1ccc(Cl)c(C(=O)Nc2cnc(NC(C)=O)nc2)c1F
≥ 5.00: [1] | [3] | [2] | [4]
